In US20230278972A1, “SUBSTITUTED HALOALKYL SULFONANILIDE HERBICIDES” (FMC Corporation, priority 2020, published 2023):

Experiments:
Type in all cases: in vivo
kochia (Bassia scoparia) [1] = assay: Test A postemergence, kochia; conditions: Postemergence, 0 to 100 scale (0 no effect, 100 complete control); for Plant response rating, Kochia: 125 g ai/ha; for Kochia plant response rating: 500 g ai/ha, visual injury vs untreated controls after approx. 10 days
Excerpt: (§1) Seeds of plant species selected from barnyardgrass (Echinochloa crus-galli), kochia (Bassia scoparia), ragweed (common ragweed, Ambrosia artemisiifolia), Ryegrass, Italian (Italian ryegrass, Lolium multiflorum), Foxtail, Giant (giant foxtail, Setaria faberi), and pigweed (Amaranthus retroflexus) were planted into a blend of loam soil and sand and treated preemergence with a directed soil spray using test chemicals formulated in a non-phytotoxic solvent mixture which included a surfactant. At the same time, plants selected from these weed species and also wheat (Triticum aestivum), corn (Zea mays), blackgrass (Alopecurus myosuroides), and galium (catchweed bedstraw, Galium aparine) were planted in pots containing the same blend of loam soil and sand and treated with postemergence applications of test chemicals formulated in the same manner. Plants ranged in height from 2 to 10 cm and were in the one- to two-leaf stage for the postemergence treatment. […] A dash (-) response means no test result.

[2] = tested on: galium (catchweed bedstraw, Galium aparine); assay: Test A postemergence, galium; conditions: Postemergence, 0 to 100 scale (0 no effect, 100 complete control); for Plant response rating, Galium: 125 g ai/ha; for Galium plant response rating: 500 g ai/ha, visual injury vs untreated controls after approx. 10 days
Excerpt: as §1

[3] = tested on: barnyardgrass (Echinochloa crus-galli); assay: Test A postemergence, barnyardgrass; conditions: Postemergence, 0 to 100 scale (0 no effect, 100 complete control); for Plant response rating, Barnyardgrass: 125 g ai/ha; for Barnyardgrass plant response rating: 500 g ai/ha, visual injury vs untreated controls after approx. 10 days
Excerpt: as §1

[4] = tested on: ragweed (common ragweed, Ambrosia artemisiifolia); assay: Test A postemergence, ragweed; conditions: Postemergence, 0 to 100 scale (0 no effect, 100 complete control); for Plant response rating, Ragweed: 125 g ai/ha; for Ragweed plant response rating: 500 g ai/ha, visual injury vs untreated controls after approx. 10 days
Excerpt: as §1

[5] = tested on: Ryegrass, Italian (Italian ryegrass, Lolium multiflorum); assay: Test A postemergence, Ryegrass, Italian; conditions: Postemergence, 0 to 100 scale (0 no effect, 100 complete control); for Plant response rating, Ryegrass, Italian: 125 g ai/ha; for Ryegrass, Italian plant response rating: 500 g ai/ha, visual injury vs untreated controls after approx. 10 days
Excerpt: as §1

[6] = tested on: Foxtail, Giant (giant foxtail, Setaria faberi); assay: Test A postemergence, Foxtail, Giant; conditions: Postemergence, 0 to 100 scale (0 no effect, 100 complete control); for Plant response rating, Foxtail, Giant: 125 g ai/ha; for Foxtail, Giant plant response rating: 500 g ai/ha, visual injury vs untreated controls after approx. 10 days
Excerpt: as §1

[7] = tested on: Foxtail, Giant (giant foxtail, Setaria faberi); assay: Test A preemergence, Foxtail, Giant; conditions: Preemergence; for Foxtail, Giant plant response rating: 125 g ai/ha, visual injury on 0 to 100 scale (0 no effect, 100 complete control), approximately 10 days; for Plant response rating, Foxtail, Giant: 500 g ai/ha, 0 to 100 scale (0 no effect, 100 complete control)
Excerpt: as §1

[8] = tested on: pigweed (Amaranthus retroflexus); assay: Test A postemergence, pigweed; conditions: Postemergence, 0 to 100 scale (0 no effect, 100 complete control); for Plant response rating, Pigweed: 125 g ai/ha; for Pigweed plant response rating: 500 g ai/ha, visual injury vs untreated controls after approx. 10 days
Excerpt: as §1

[9] = tested on: ragweed (common ragweed, Ambrosia artemisiifolia); assay: Test A preemergence, ragweed; conditions: Preemergence; for Ragweed plant response rating: 125 g ai/ha, visual injury on 0 to 100 scale (0 no effect, 100 complete control), approximately 10 days; for Plant response rating, Ragweed: 500 g ai/ha, 0 to 100 scale (0 no effect, 100 complete control)
Excerpt: as §1

[10] = tested on: wheat (Triticum aestivum); assay: Test A postemergence, wheat; conditions: Postemergence, 0 to 100 scale (0 no effect, 100 complete control); for Plant response rating, Wheat: 125 g ai/ha; for Wheat plant response rating: 500 g ai/ha, visual injury vs untreated controls after approx. 10 days
Excerpt: as §1

[11] = tested on: blackgrass (Alopecurus myosuroides); assay: Test A postemergence, blackgrass; conditions: Postemergence, 0 to 100 scale (0 no effect, 100 complete control); for Plant response rating, Blackgrass: 125 g ai/ha; for Blackgrass plant response rating: 500 g ai/ha, visual injury vs untreated controls after approx. 10 days
Excerpt: as §1

corn (Zea mays) = assay: Test A postemergence, corn; conditions: Postemergence, 0 to 100 scale (0 no effect, 100 complete control); for Plant response rating, Corn: 125 g ai/ha; for Corn plant response rating: 500 g ai/ha, visual injury vs untreated controls after approx. 10 days
Excerpt: as §1

[12] = tested on: Ryegrass, Italian (Italian ryegrass, Lolium multiflorum); assay: Test A preemergence, Ryegrass, Italian; conditions: Preemergence; for Ryegrass, Italian plant response rating: 125 g ai/ha, visual injury on 0 to 100 scale (0 no effect, 100 complete control), approximately 10 days; for Plant response rating, Ryegrass, Italian: 500 g ai/ha, 0 to 100 scale (0 no effect, 100 complete control)
Excerpt: as §1

[13] = tested on: barnyardgrass (Echinochloa crus-galli); assay: Test A preemergence, barnyardgrass; conditions: Preemergence; for Barnyardgrass plant response rating: 125 g ai/ha, visual injury on 0 to 100 scale (0 no effect, 100 complete control), approximately 10 days; for Plant response rating, Barnyardgrass: 500 g ai/ha, 0 to 100 scale (0 no effect, 100 complete control)
Excerpt: as §1

kochia (Bassia scoparia) [14] = assay: Test A preemergence, kochia; conditions: Preemergence; for Kochia plant response rating: 125 g ai/ha, visual injury on 0 to 100 scale (0 no effect, 100 complete control), approximately 10 days; for Plant response rating, Kochia: 500 g ai/ha, 0 to 100 scale (0 no effect, 100 complete control)
Excerpt: as §1

Cc1cc(C)c(C2=NOC3CCCC23)cc1NS(=O)(=O)C(F)(F)F (stereo not drawn) [Compound 164]
Plant response rating, Kochia (kochia (Bassia scoparia) [1]): 60 | Kochia plant response rating (kochia (Bassia scoparia) [1]): 90 | Plant response rating, Galium [2]: 80 | Galium plant response rating [2]: 90 | Plant response rating, Barnyardgrass [3]: 80 | Barnyardgrass plant response rating [3]: 90 | Plant response rating, Ragweed [4]: 70 | Ragweed plant response rating [4]: 90 | Plant response rating, Ryegrass, Italian [5]: 80 | Ryegrass, Italian plant response rating [5]: 90 | Plant response rating, Foxtail, Giant [6]: 0 | Foxtail, Giant plant response rating [6]: 40 | Foxtail, Giant plant response rating [7]: 90 | Plant response rating, Foxtail, Giant [7]: 100 | Plant response rating, Pigweed [8]: 70 | Pigweed plant response rating [8]: 90 | Ragweed plant response rating [9]: 90 | Plant response rating, Ragweed [9]: 100 | Plant response rating, Wheat [10]: 60 | Wheat plant response rating [10]: 70 | Plant response rating, Blackgrass [11]: 0 | Blackgrass plant response rating [11]: 40 | Plant response rating, Corn (corn (Zea mays)): 0 | Corn plant response rating (corn (Zea mays)): 80 | Ryegrass, Italian plant response rating [12]: 80 | Plant response rating, Ryegrass, Italian [12]: 100 | Barnyardgrass plant response rating [13]: 90 | Plant response rating, Barnyardgrass [13]: 100 | Kochia plant response rating (kochia (Bassia scoparia) [14]): 100 | Plant response rating, Kochia (kochia (Bassia scoparia) [14]): 100

Cc1cc(C)c(C2=NOC(C(C)(C)C)C2)cc1NS(=O)(=O)C(F)(F)F (stereo not drawn) [Compound 108]
Plant response rating, Kochia (kochia (Bassia scoparia) [1]; visual injury approx. 10 days): 30 | Kochia plant response rating (kochia (Bassia scoparia) [1]): 80 | Plant response rating, Galium ([2]; visual injury approx. 10 days): 70 | Galium plant response rating [2]: 90 | Plant response rating, Barnyardgrass ([3]; visual injury approx. 10 days): 20 | Barnyardgrass plant response rating [3]: 90 | Plant response rating, Ragweed ([4]; visual injury approx. 10 days): 40 | Ragweed plant response rating [4]: 80 | Plant response rating, Ryegrass, Italian ([5]; visual injury approx. 10 days): 0 | Ryegrass, Italian plant response rating [5]: 70 | Plant response rating, Foxtail, Giant ([6]; visual injury approx. 10 days): 0 | Foxtail, Giant plant response rating [6]: 30 | Foxtail, Giant plant response rating [7]: 80 | Plant response rating, Foxtail, Giant [7]: 100 | Plant response rating, Pigweed ([8]; visual injury approx. 10 days): 0 | Pigweed plant response rating [8]: 60 | Ragweed plant response rating [9]: 20 | Plant response rating, Ragweed [9]: 60 | Plant response rating, Wheat ([10]; visual injury approx. 10 days): 30 | Wheat plant response rating [10]: 70 | Plant response rating, Blackgrass ([11]; visual injury approx. 10 days): 0 | Blackgrass plant response rating [11]: 50 | Plant response rating, Corn (corn (Zea mays); visual injury approx. 10 days): 0 | Corn plant response rating (corn (Zea mays)): 50 | Ryegrass, Italian plant response rating [12]: 90 | Plant response rating, Ryegrass, Italian [12]: 100 | Barnyardgrass plant response rating [13]: 70 | Plant response rating, Barnyardgrass [13]: 100 | Kochia plant response rating (kochia (Bassia scoparia) [14]): 80 | Plant response rating, Kochia (kochia (Bassia scoparia) [14]): 90

Cc1cc(C)c(C2=NOC3(CCSCC3)C2)cc1NS(=O)(=O)C(F)(F)F [Compound 176]
Plant response rating, Kochia (kochia (Bassia scoparia) [1]): 40 | Kochia plant response rating (kochia (Bassia scoparia) [1]): 50 | Plant response rating, Galium [2]: 90 | Galium plant response rating [2]: 90 | Plant response rating, Barnyardgrass [3]: 80 | Barnyardgrass plant response rating [3]: 90 | Plant response rating, Ragweed [4]: 60 | Ragweed plant response rating [4]: 90 | Plant response rating, Ryegrass, Italian [5]: 60 | Ryegrass, Italian plant response rating [5]: 80 | Plant response rating, Foxtail, Giant [6]: 90 | Foxtail, Giant plant response rating [6]: 90 | Foxtail, Giant plant response rating [7]: 100 | Plant response rating, Foxtail, Giant [7]: 100 | Plant response rating, Pigweed [8]: 60 | Pigweed plant response rating [8]: 90 | Ragweed plant response rating [9]: 40 | Plant response rating, Ragweed [9]: 90 | Plant response rating, Wheat [10]: 60 | Wheat plant response rating [10]: 60 | Plant response rating, Blackgrass [11]: 40 | Blackgrass plant response rating [11]: 70 | Plant response rating, Corn (corn (Zea mays)): 70 | Corn plant response rating (corn (Zea mays)): 80 | Ryegrass, Italian plant response rating [12]: 90 | Plant response rating, Ryegrass, Italian [12]: 100 | Barnyardgrass plant response rating [13]: 70 | Plant response rating, Barnyardgrass [13]: 90 | Kochia plant response rating (kochia (Bassia scoparia) [14]): 70 | Plant response rating, Kochia (kochia (Bassia scoparia) [14]): 90
